Holding throughout (format): in vivo
For test [1], the system named is letrozole-induced PCOS in female Zucker fa/fa rats. Briefly: Ovaries weight in letrozole-induced PCOS rats. To be noted: (Ia) 4 mg/kg; for Ovaries weight, % Change Vs Vehicle Control / Ovaries weight: after 4 weeks of oral treatment, metformin 200 mg/kg; for Ovaries weight: Mean±SEM, n=6. As for the experimental part:
Female Zucker fa/fa rats (6-8 weeks) were issued from animal house of Zydus research Centre and quarantined for 7 weeks. At the age of 13-15 weeks all animals were administered Letrozole (1 mg/kg/2 ml) orally for 4 weeks to induce PCOS. […] Letrozole (1 mg/kg/2 mL) treatment was continued. At the end of study, animals were sacrificed by cervical dislocation and ovaries were collected and weighed.

Test [2] shares this test system. As to the kind of experiment: Insulin tolerance test in letrozole-induced PCOS rats. Particulars: (Ia) 4 mg/kg. How it is done:
(§1) Female Zucker fa/fa rats (6-8 weeks) were issued from animal house of Zydus research Centre and quarantined for 7 weeks. At the age of 13-15 weeks all animals were administered Letrozole (1 mg/kg/2 ml) orally for 4 weeks to induce PCOS.
(§2) After 4 weeks of Letrozole, all animals with confirmed PCOS on basis of body weight and estrous cycle were randomized. […] Letrozole (1 mg/kg/2 mL) treatment was continued.
Continuing compound of formula (Ia) treatment for next two days, insulin tolerance test was performed after 6 h fast. […] Whole blood glucose was estimated using One-touch ultra-blood glucose meter. Blood glucose levels were then estimated at 0, 15, 30, 60 and 120 min corresponding to the insulin injection.

The subject of test [3] is Letrozole-induced polycystic ovary syndrome (PCOS) in female Wistar rats. Briefly: Histological count of cystic follicles in letrozole-induced PCOS rats. As for the experimental part: Sixty female Wistar rats (7-8 weeks) were issued from animal house of Zydus research Centre and quarantined for 4 weeks. At the age of 11-12 weeks all animals were randomized on body weight basis into two treatment groups, namely, vehicle (n=10) as non-PCOS or Letrozole (n=50) for PCOS. Formulated Letrozole (1 mg/kg/2 ml) were administered orally for 4 weeks to induce PCOS.
After 4 weeks of Letrozole, all animals with confirmed PCOS on basis of body weight and estrous cycle were randomized. After randomization, animals were assigned to either Vehicle control or Compound of Formula (Ia) (4 mg/kg, PO) treatment (n=8). Letrozole (1 mg/kg/2 mL) treatment was continued. Rest of the animals was sacrificed.
At the end of treatment, animals were sacrificed by cervical dislocation and ovaries were collected in 10% formalin. Ovaries were processed and embedded in paraffin and subjected to serial sectioning at 3-5 μm using rotary microtome, and sections were transferred on glass slides and stained with haematoxylin-eosin (H and E). The evaluation was done using light microscope and grading of the tissue pathological status was done. Total numbers of cystic follicles were counted on all sections throughout each ovary.

The test system of test [4] is letrozole-induced PCOS in female Zucker fa/fa rats. Briefly: Serum LH, FSH and testosterone (ELISA) in letrozole-induced PCOS rats. Particulars: (Ia) 4 mg/kg. As for the experimental part:
as §1, §2
After 4 weeks of compound of formula (Ia) treatment, Insulin was subcutaneously injected at 1.5 U/kg regular insulin and 2 g/kg glucose load was administered orally. Blood was collected 40 min following injection. Serum samples were analyzed for LH, FSH and testosterone using ELISA kit according to manufacturer's instructions.

Setting [5] is: repeated dose oral treatment, alone or with metformin 200 mg/kg.
Where [6] appears, read: 4 mg/kg, individual animal mean of 6 sections.
Setting [7] is: 4 mg/kg, individual animal, ovary sections 1-6.
[8] abbreviates: after 4 weeks of oral treatment, metformin 200 mg/kg.
Setting [9] is: after 4 weeks of oral treatment, metformin 200 mg/kg, Mean±SEM, n=6.

Where “and” joins values, the source holds several entries; their conditions need not be identical. Equal entries are not always repeated.

Consider `CCO[C@@H](Cc1ccc(OCCn2c(C)ccc2-c2ccc(SC)cc2)cc1)C(=O)O` [Compound of Formula (Ia), Saroglitazar Magnesium], for which, in test [1], the “Ovaries weight, % Change Vs Vehicle Control” value was −20.7 ± 3.5% and the “Ovaries weight” value is recorded as 137.2 ± 6.1 mg. In addition, the “ovary weight (in words)” value in test [1] (setting [5]) was “normalized”. Besides, the “AUC glucose, % Change Vs Vehicle Control” value in test [2] (insulin tolerance test after 4 weeks of oral treatment, metformin 200 mg/kg) is −37.4 ± 4.9%. Besides, the “AUC glucose (120 min*mg/dL)” value in test [2] (insulin tolerance test after 4 weeks of oral treatment, metformin 200 mg/kg, Mean±SEM, n=6) was 6819.0 ± 535.8 mg·min/dL. In addition, the “insulin sensitivity (in words)” value in test [2] (setting [5]) is “significantly improved”. Also, in test [3] (setting [6]), the “cystic follicles, Mean of ovary sections, Animal-9” value was 3.50; the “cystic follicles, Mean of ovary sections, Animal-10” value was 3.50; the “cystic follicles, Mean of ovary sections, Animal-11” value came out at 7.50; the “cystic follicles, Mean of ovary sections, Animal-12” value is 3.83. Besides, in test [3] (setting [6]), the “cystic follicles, Mean of ovary sections, Animal-13” value was 2.00; the “cystic follicles, Mean of ovary sections, Animal-14” value amounted to 4.67; the “cystic follicles, Mean of ovary sections, Animal-15” value worked out at 3.83; the “cystic follicles, Mean of ovary sections, Animal-16” value worked out at 9.50. In test [3] (setting [7]), the “cystic follicles per ovary section, Animal-9” value is 4 (3×) and 3 (3×); the “cystic follicles per ovary section, Animal-10” value is 3 (3×) and 4 (3×); the “cystic follicles per ovary section, Animal-11” value was 7 (3×) and 8 (3×); the “cystic follicles per ovary section, Animal-12” value is 4 and 3 (3×) and 5 (2×). In addition, in test [3] (setting [7]), the “cystic follicles per ovary section, Animal-13” value turned out to be 2; the “cystic follicles per ovary section, Animal-14” value is 5 (4×) and 4 (2×); the “cystic follicles per ovary section, Animal-15” value is 4 and 3 (3×) and 5 (2×); the “cystic follicles per ovary section, Animal-16” value was 11 (3×) and 10 and 2 and 12. Further, the “Number of cystic follicle, % Change Vs Vehicle control” value in test [3] (after 4 weeks of treatment, 4 mg/kg PO) was −56.6 ± 7.9%. In addition, the “Number of cystic follicle” value in test [3] (after 4 weeks of treatment, 4 mg/kg PO, Mean ± SEM, n=8) came to 4.79 ± 0.87. Besides, the “occurrence of cystic follicles (in words)” value in test [3] (female Wistar rats, PCOS induced using Letrozole) is “significantly decreased”. Moreover, in test [4] (setting [8]), the “LH/FSH ratio, % Change Vs Vehicle Control” value is on record as −17.1 ± 6.0%; the “Serum FSH, % Change Vs Vehicle Control” value was found to be 32.3 ± 4.5%; the “Serum LH, % Change Vs Vehicle Control” value amounted to 9.9 ± 7.4%; the “Serum testosterone, % Change Vs Vehicle Control” value was −61.8 ± 4.7%. Besides, in test [4] (setting [9]), the LH/FSH ratio is on record as 1.2 ± 0.1, the “Serum FSH” value stood at 103.1 ± 3.5 ng/mL, the “Serum LH” value was found to be 121.4 ± 8.2 ng/mL and the “Serum testosterone” value came to 1.6 ± 0.2 ng/mL. For the same compound, in test [4] (repeated dose oral treatment), the “LH/FSH ratio (in words)” value is “decreased” and the “serum FSH (in words)” value is reported as “increased”. Further, the “serum testosterone (in words)” value in test [4] (setting [5]) was “decreased”.
For the compound `CN(C)C(=N)N=C(N)N` [Metformin, reference compound], in test [1], the “Ovaries weight, % Change Vs Vehicle Control” value was −2.4 ± 4.1% and the “Ovaries weight” value stood at 169.8 ± 11.9 mg. In test [4] (setting [8]), the “Serum FSH, % Change Vs Vehicle Control” value was found to be 4.4 ± 3.6%; the “Serum LH, % Change Vs Vehicle Control” value came to 0.81 ± 3.1%; the “Serum testosterone, % Change Vs Vehicle Control” value was −2.4 ± 4.1%. Further, in test [4] (setting [9]), the “Serum FSH” value was 85.3 ± 3.2 ng/mL, the “Serum LH” value worked out at 109.6 ± 9.2 ng/mL and the “Serum testosterone” value came out at 4.0 ± 0.9 ng/mL.
